Assay results reported in US20040101503A1, “Use of protectin activator to enhance the skin's resistance, composition comprising such activators and selection method” (SOCIETE L'OREAL S.A., priority 2002, published 2004).

Tested on: messenger RNAs coding for the protein CD59
Experiment: cDNA array of CD59 mRNA on standard human dermal fibroblasts
Format: cell-based
Conditions: for Comparision of the Control Population with the Population Exposed to the Extract (in %) / Fibroblasts Exposed to the Extract (RE): 15 micrograms/ml; for Comparision of the Control Population with the Population Exposed to the Extract (in %): control = 100; for Fibroblasts Exposed to the Extract (RE): control fibroblasts 6.1 RE
Protocol: The methodology used is that recommended by Clontech (Palo Alto, USA). […] The total RNA solutions were treated with DNAse I in order to remove any trace of contaminant DNA, in accordance with the supplier's recommendations. The quality of the RNA was then verified on agarose gel and the RNA solutions were adjusted to 1 μg/ml.
The next step was the purification of the messenger RNAs (mRNA) by hybridization of the poly(A) ends of the mRNAs using biotinylated oligo(dT) primers and selective capture on streptavidin beads, in accordance with the Atlaspure protocol (Clontech). ^33P-labeled DNA probes were produced by reverse transcription of the niRNAs bound to poly(dT) beads, using a pool of specific primers of the immobilized sequences on membranes (arrays), in the presence of (α^33P)-dATP. This step used the reagents and the protocol recommended by Clontech. The labeled probes were purified by chromatography on an exclusion column, and the quality and equivalence of the labeled probes was evaluated by liquid scintillation counting.
cDNA array membranes were pretreated and then the cDNAs immobilized on each membrane were hybridized (68° C., overnight) with the corresponding labeled probes. The filters were subsequently washed and placed in individual plastic bags for analysis. Analysis took place by direct quantification of the radioactivity of the spots using a Cyclone phosphoimager (Packard). The results were expressed in relative expression units (RE, radioactivity of the spot corresponding to each gene, corrected for the background noise and for the differences in intensity of labeling of the probes).
The study was carried out on standard human fibroblasts. Dermal fibroblasts were cultivated in DMEM (Life Technology, ref. 21969035) containing L-glutamine (2 mM, Life Technology, ref. 25030024), 50 IU/ml penicillin and 50 μg/ml streptomycin (Life Technology, ref. 15070063) and 1% foetal calf serum (v/v, Life Technology, ref. 10106151).
A fraction of a root extract of Panax notoginseng (San Qi) containing only the saponins was tested for its activity in accordance with the protocol described in the foregoing example by the technique of cDNA array on fibroblasts. The two principal saponins from the extract were also tested.
All the products were tested at a final concentration of 15 micrograms/ml

SMILES	effect on expression of messenger RNAs coding for the protein CD59 (in words)	Comparision of the Control Population with the Population Exposed to the Extract (in %) [%]	Fibroblasts Exposed to the Extract (RE)
CC(C)=CCC[C@](C)(O[C@@H]1O[C@H](CO[C@@H]2O[C@H](CO)[C@@H](O)[C@H](O)[C@H]2O)[C@@H](O)[C@H](O)[C@H]1O)[C@H]1CC[C@]2(C)[C@@H]1[C@H](O)C[C@@H]1[C@@]3(C)CC[C@H](O[C@@H]4O[C@H](CO)[C@@H](O)[C@H](O)[C@H]4O[C@@H]4O[C@H](CO)[C@@H](O)[C@H](O)[C@H]4O)C(C)(C)[C@@H]3CC[C@]12C [Rb1, Rb1 ginsenoside]	significantly modify	277	13.8
CC(C)=CCC[C@](C)(O[C@@H]1O[C@H](CO)[C@@H](O)[C@H](O)[C@H]1O)[C@H]1CC[C@]2(C)[C@@H]1[C@H](O)C[C@@H]1[C@@]3(C)CC[C@H](O)C(C)(C)[C@@H]3[C@@H](O[C@@H]3O[C@H](CO)[C@@H](O)[C@H](O)[C@H]3O)C[C@]12C [Rg1, Rg1 ginsenoside]	significantly modify	277	16.8
